{"source": "patent US20030211475A1", "about": "“Methods for identifying pathway-specific reporters and target genes, and uses thereof” (Rosetta Inpharmatics, Inc., priority 1999, published 2003)", "system": "ergosterol pathway", "test": "DNA microarray transcript profiling of clotrimazole-treated yeast"}
{"compound": "Clc1ccccc1C(c1ccccc1)(c1ccccc1)n1ccnc1", "note": "[Clotrimazole, clotrimazole]", "values": [{"measurement": "YPL272C expression in response to drug treatment (titration plot, FIG. 13)", "setting": "clotrimazole titration", "value": "induced to a high level"}, {"measurement": "number of genes upregulated by treatment", "setting": "wild-type strain R174, YPD, 30° C., 12 hours, 0.03, 0.1, 1.0, and 3.0 ug/ml", "value": "~500"}]}
